Measured values from patent publication US9271960B2, “Tetrahydrocarbazoles as active agents for inhibiting VEGF production by translational control” (PTC Therapeutics, Inc., priority 2004, dated 2016).
Structures can show the parent of a compound that is named as a salt. Where two headings read alike, the source gives them in different places.

Tested on: VEGF
Assay: Hypoxia-inducible endogenous VEGF expression ELISA in HeLa cells
Type: cell-based
Details: Homo sapiens, HeLa, VEGF protein by ELISA
In short: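 HeLa cells held 24–48 h in hypoxia (1% O2) with a concentration series of compound; VEGF secreted into media quantified by ELISA against a standard curve. Parallel Cell Titer Glo viability under identical conditions gives CC50; EC50 from percent-inhibition curves.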

[1] = compounds 1-155, hypoxic conditions (1% O2), read-out: ELISA Activity
[2] = purchased compounds 156-188, hypoxic conditions, read-out: ELISA Activity
[3] = purchased compounds 156-188, hypoxic conditions, read-out: ELISA EC50

SMILES | EC50 [1] [nM] | EC50 [2] [nM] | EC50 [3] [nM]
O=C(NC1CCCc2c1[nH]c1ccc(Br)cc21)c1cccs1 (centres unmarked) [Compound 128, Thiophene-2-carboxylic acid (6-bromo-2,3,4,9-tetrahydro-1H-carbazol-1-yl)-amide] | < 10 |  | 
Brc1ccc2[nH]c3c(c2c1)CCCC3c1nc2ccccc2o1 (centres unmarked) [Compound 129, 1-Benzooxazol-2-yl-6-bromo-2,3,4,9-tetrahydro-1H-carbazole] | < 10 |  | 
COc1ccc(C(=O)NC2CCCc3c2[nH]c2ccc(Br)cc32)cc1 (centres unmarked) [Compound 130, N-(6-Bromo-2,3,4,9-tetrahydro-1H-carbazol-1-yl)-4-methoxy-benzamide] | 10 to 40 |  | 
O=C(NC1CCCc2c1[nH]c1ccc(Br)cc21)c1ccc(C(F)(F)F)cc1 (centres unmarked) [Compound 131, N-(6-Bromo-2,3,4,9-tetrahydro-1H-carbazol-1-yl)-4-trifluoromethyl-benzamide] | 10 to 40 |  | 
N#Cc1ccc(C(=O)NC2CCCc3c2[nH]c2ccc(Br)cc32)cc1 (centres unmarked) [Compound 132, N-(6-Bromo-2,3,4,9-tetrahydro-1H-carbazol-1-yl)-4-cyano-benzamide] | 10 to 40 |  | 
O=C(NC1CCCc2c1[nH]c1ccc(Br)cc21)c1ccc(F)cc1F (centres unmarked) [Compound 133, N-(6-Bromo-2,3,4,9-tetrahydro-1H-carbazol-1-yl)-2,4-difluoro-benzamide] | < 10 |  | 
O=C(NC1CCCc2c1[nH]c1ccc(Br)cc21)c1ccc(Cl)cc1 (centres unmarked) [Compound 134, N-(6-Bromo-2,3,4,9-tetrahydro-1H-carbazol-1-yl)-4-chloro-benzamide] | 10 to 40 |  | 
Clc1ccc(NC2CCCc3c2[nH]c2ccc(Cl)cc32)cc1 (centres unmarked) [Compound 135, (4-Chloro-phenyl)-(6-chloro-2,3,4,9-tetrahydro-1H-carbazol-1-yl)-amine] | 10 to 40 |  | 
COc1ccc(NC2CCCc3c2[nH]c2ccc(Cl)cc32)cc1 (centres unmarked) [Compound 136, (6-Chloro-2,3,4,9-tetrahydro-1H-carbazol-1-yl)-(4-methoxy-phenyl)-amine] | < 10 |  | 
FC(F)(F)c1ccc(NC2CCCc3c2[nH]c2ccc(Cl)cc32)cc1 (centres unmarked) [Compound 137, (6-Chloro-2,3,4,9-tetrahydro-1H-carbazol-1-yl)-(4-trifluoromethyl-phenyl)-amine] | < 10 |  | 
FC(F)(F)c1ccc2[nH]c3c(c2c1)CCCC3Nc1ccc(Cl)cc1 (centres unmarked) [Compound 138, (4-Chloro-phenyl)-(6-trifluoromethyl-2,3,4,9-tetrahydro-1H-carbazol-1-yl)-amine] | 10 to 40 |  | 
COc1ccc(NC2CCCc3c2[nH]c2ccc(C(F)(F)F)cc32)cc1 (centres unmarked) [Compound 139, (4-Methoxy-phenyl)-(6-trifluoromethyl-2,3,4,9-tetrahydro-1H-carbazol-1-yl)-amine] | 10 to 40 |  | 
FC(F)(F)c1ccc(NC2CCCc3c2[nH]c2ccc(C(F)(F)F)cc32)cc1 (centres unmarked) [Compound 140, (4-Trifluoromethyl-phenyl)-(6-trifluoromethyl-2,3,4,9-tetrahydro-1H-carbazol-1-yl)-amine] | 10 to 40 |  | 
Brc1ccc2[nH]c3c(c2c1)CCCC3Nc1ncccn1 (centres unmarked) [Compound 141, (6-Bromo-2,3,4,9-tetrahydro-1H-carbazol-1-yl)-pyrimidin-2-yl-amine] | < 10 |  | 
Brc1ccc2[nH]c3c(c2c1)CCCC3c1nc2ccccc2[nH]1 (centres unmarked) [Compound 142, 1-(1H-Benzoimidazol-2-yl)-6-bromo-2,3,4,9-tetrahydro-1H-carbazole] | 10 to 40 |  | 
O=C(NC1CCCc2c1[nH]c1ccc(Cl)cc21)c1cccs1 (centres unmarked) [Compound 143, Thiophene-2-carboxylic acid (6-chloro-2,3,4,9-tetrahydro-1H-carbazol-1-yl)-amide] | 40 to 200 |  | 
O=C(NC1CCCc2c1[nH]c1ccc(Cl)cc21)c1ccco1 (centres unmarked) [Compound 144, Furan-2-carboxylic acid (6-chloro-2,3,4,9-tetrahydro-1H-carbazol-1-yl)-amide] | 40 to 200 |  | 
COc1ccc(C(=O)NC2CCCc3c2[nH]c2ccc(Cl)cc32)cc1 (centres unmarked) [Compound 145, N-(6-Chloro-2,3,4,9-tetrahydro-1H-carbazol-1-yl)-4-methoxy-benzamide] | 10 to 40 |  | 
O=C(NC1CCCc2c1[nH]c1ccc(Br)cc21)c1ccc([N+](=O)[O-])o1 (centres unmarked) [Compound 146, 5-Nitro-furan-2-carboxylic acid (6-bromo-2,3,4,9-tetrahydro-1H-carbazol-1-yl)-amide] | 40 to 200 |  | 
O=C(NC1CCCc2c1[nH]c1ccc(Br)cc21)C1CC1 (centres unmarked) [Compound 147, Cyclopropanecarboxylic acid (6-bromo-2,3,4,9-tetrahydro-1H-carbazol-1-yl)-amide] | 40 to 200 |  | 
Cc1ccc2c(c1)c1c3n2CCN(N=O)C3CCC1 (centres unmarked) [Compound 162, 8-Methyl-3-nitroso-2,3,3a,4,5,6-hexahydro-1H-pyrazino[3,2,1-jk]carbazole] |  | 200 to 1000 | 890
CC(C)COc1ccc2c(c1)c1c3n2CCNC3CCC1 (centres unmarked) [Compound 167, 8-Isobutoxy-2,3,3a,4,5,6-hexahydro-1H-pyrazino[3,2,1-jk]carbazole] |  | > 1000 | 6930

Further lines, results first:

EC50 [1] [nM] | EC50 [2] [nM] | EC50 [3] [nM] | SMILES
< 10 |  |  | O=C1c2sccc2CN1C1CCCc2c1[nH]c1ccc(Cl)cc21 (centres unmarked) [Compound 148, 5-(6-Chloro-2,3,4,9-tetrahydro-1H-carbazol-1-yl)-4,5-dihydro-thieno[2,3-c]pyrrol-6-one]
40 to 200 |  |  | O/N=C/c1ccn(C2CCCc3c2[nH]c2ccc(Br)cc32)c1 (centres unmarked) [Compound 149, 1-(6-Bromo-2,3,4,9-tetrahydro-1H-carbazol-1-yl)-1H-pyrrole-3-carbaldehyde oxime]
10 to 40 |  |  | O=C(NC1CCCc2c1[nH]c1ccc(Br)cc21)c1ccno1 (centres unmarked) [Compound 150, isoxazole-5-carboxylic acid (6-bromo-2,3,4,9-tetrahydro-1H-carbazol-1-yl)-amide]
10 to 40 |  |  | Cc1cc(C(=O)NC2CCCc3c2[nH]c2ccc(Br)cc32)no1 (centres unmarked) [Compound 151, 5-Methyl-isoxazole-3-carboxylic acid (6-bromo-2,3,4,9-tetrahydro-1H-carbazol-1-yl)-amide]
200 to 1000 |  |  | O=C(NC1CCCc2c1[nH]c1ccc(Br)cc21)c1ccoc1 (centres unmarked) [Compound 152, Furan-3-carboxylic acid (6-bromo-2,3,4,9-tetrahydro-1H-carbazol-1-yl)-amide]
40 to 200 |  |  | O=C(NC1CCCc2c1[nH]c1ccc(Br)cc21)c1ccsc1 (centres unmarked) [Compound 153, Thiophene-3-carboxylic acid (6-bromo-2,3,4,9-tetrahydro-1H-carbazol-1-yl)-amide]
< 10 |  |  | O=C(NC1CCCc2c1[nH]c1ccc(Br)cc21)c1ccc(Cl)s1 (centres unmarked) [Compound 154, 5-Chloro-thiophene-2-carboxylic acid (6-bromo-2,3,4,9-tetrahydro-1H-carbazol-1-yl)-amide]
10 to 40 |  |  | Cn1cccc1C(=O)NC1CCCc2c1[nH]c1ccc(Br)cc21 (centres unmarked) [Compound 155, 1-Methyl-1H-pyrrole-2-carboxylic acid (6-bromo-2,3,4,9-tetrahydro-1H-carbazol-1-yl)-amide]
 | < 10 | 10 | Brc1ccc2[nH]c3c(c2c1)CCCC3n1cccc1 (centres unmarked) [Compound 156, 6-Bromo-1-pyrrol-1-yl-2,3,4,9-tetrahydro-1H-carbazole]
 | 10 to 40 | 14.9 | O=[N+]([O-])c1ccc2[nH]c3c(c2c1)CCCC3NC1CCC(c2ccccc2)CC1 (centres unmarked) [Compound 157]
 | 200 to 1000 | 360 | Cc1ccc2[nH]c3c(c2c1)CCCC3NCC12CC3CC(CC(C3)C1)C2 (centres unmarked) [Compound 159, Adamantan-1-ylmethyl-(6-methyl-2,3,4,9-tetrahydro-1H-carbazol-1-yl)-amine]
 | 200 to 1000 | 420 | Cc1ccc2[nH]c3c(c2c1)CCCC3NCc1ccc(Cl)cc1 (centres unmarked) [Compound 160, (4-Chloro-benzyl)-(6-methyl-2,3,4,9-tetrahydro-1H-carbazol-1-yl)-amine]
 | 200 to 1000 | 670 | Cc1ccc2[nH]c3c(c2c1)CCCC3NC1CCCCC1 (centres unmarked) [Compound 161, Cyclohexyl-(6-methyl-2,3,4,9-tetrahydro-1H-carbazol-1-yl)-amine]
 | > 1000 | 1790 | c1ccc(CN2CCn3c4c(c5ccccc53)CCCC42)cc1 (centres unmarked) [Compound 163, 3-Benzyl2,3,3a,4,5,6-hexahydro-1H-pyrazino[3,2,1-jk]carbazole]
 | > 1000 | 2170 | S=C(Nc1ccccc1)N1CCn2c3c(c4cc(C5CCCCC5)ccc42)CCCC31 (centres unmarked) [Compound 164, 8-Cyclohexyl-1,2,3a,4,5,6-hexahydro-pyrazino[3,2,1-jk]carbazole-3-carbothioic acid phenylamide]
 | > 1000 | 5200 | COC(CNC1CCCc2c1[nH]c1ccc(C)cc21)OC (centres unmarked) [Compound 165, (2,2-Dimethoxy-ethyl)-(6-methyl-2,3,4,9-tetrahydro-1H-carbazol-1-yl)-amine]
 | > 1000 | 6630 | C1=C(c2ccc3c(c2)c2c4n3CCN(Cc3ccccc3)C4CCC2)C2CCN1CC2 (centres unmarked) [Compound 166, 8-(1-Aza-bicyclo[2.2.2]oct-2-en-3-yl)-3-benzyl-2,3,3a,4,5,6-hexahydro-1H-pyrazino[3,2,1-jk]carbazole]
 | > 1000 | 7720 | OCCNC1CCCc2c1[nH]c1ccc(Br)cc21 (centres unmarked) [Compound 168, 2-(6-Bromo-2,3,4,9-tetrahydro-1H carbazol-1-ylamino)-ethanol hydrochloride]
 | > 1000 | > 10000 | Cc1ccc2c(c1)c1c3n2CCNC3CCC1 (centres unmarked) [Compound 169, 8-Methyl-2,3,3a,4,5,6-hexahydro-1H-pyrazino[3,2,1-jk]carbazole hydrochloride]
 | > 1000 | > 10000 | Cc1ccc2c(c1)c1c3n2CCN(C(=O)CN2CCN(C(=O)c4ccco4)CC2)C3CCC1 (centres unmarked) [Compound 170, 2-[4-(Furan-2-carbonyl)-piperazin-1-yl]-(8-methyl-1,2,3,3a,4,5,6-hexahydro-pyrazino[3,2,1-jk]carbazol-3-yl)-ethanone]
